Assays:
Conditions in all cases: 1 μM; Run 1, Run 2
[1] = molecular target: MAST3 (Homo sapiens, UniProt O60307)
[2] = molecular target: T1, PBK/TOPK (Homo sapiens, UniProt Q96KB5)
T1 sequence (Q96KB5 1-322): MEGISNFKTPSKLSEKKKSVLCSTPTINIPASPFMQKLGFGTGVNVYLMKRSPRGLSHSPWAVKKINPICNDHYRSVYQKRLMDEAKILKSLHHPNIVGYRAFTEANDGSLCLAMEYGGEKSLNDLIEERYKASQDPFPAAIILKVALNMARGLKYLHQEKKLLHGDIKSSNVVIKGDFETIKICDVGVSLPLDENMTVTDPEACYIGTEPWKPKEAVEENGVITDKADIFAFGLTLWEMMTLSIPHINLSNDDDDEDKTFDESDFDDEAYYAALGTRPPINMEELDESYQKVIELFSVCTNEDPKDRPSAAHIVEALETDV

[3] = molecular target: T2, P38d/MAPK13 (Homo sapiens, UniProt O15264)
T2 sequence (O15264 1-365): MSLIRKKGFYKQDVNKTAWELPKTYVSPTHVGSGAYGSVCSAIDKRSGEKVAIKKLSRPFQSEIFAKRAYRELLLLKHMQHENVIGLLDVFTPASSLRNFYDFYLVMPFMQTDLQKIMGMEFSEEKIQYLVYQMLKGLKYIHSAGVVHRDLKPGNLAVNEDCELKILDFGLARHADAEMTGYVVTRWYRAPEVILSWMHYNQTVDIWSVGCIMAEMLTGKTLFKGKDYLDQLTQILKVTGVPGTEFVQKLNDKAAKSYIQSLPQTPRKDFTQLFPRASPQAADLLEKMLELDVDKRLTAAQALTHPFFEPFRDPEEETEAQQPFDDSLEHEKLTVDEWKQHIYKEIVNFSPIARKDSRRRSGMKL

[4] = molecular target: CDK8/cyclin C (Homo sapiens, UniProt P49336)
Chain of CDK8/cyclin C (P49336 whole entry): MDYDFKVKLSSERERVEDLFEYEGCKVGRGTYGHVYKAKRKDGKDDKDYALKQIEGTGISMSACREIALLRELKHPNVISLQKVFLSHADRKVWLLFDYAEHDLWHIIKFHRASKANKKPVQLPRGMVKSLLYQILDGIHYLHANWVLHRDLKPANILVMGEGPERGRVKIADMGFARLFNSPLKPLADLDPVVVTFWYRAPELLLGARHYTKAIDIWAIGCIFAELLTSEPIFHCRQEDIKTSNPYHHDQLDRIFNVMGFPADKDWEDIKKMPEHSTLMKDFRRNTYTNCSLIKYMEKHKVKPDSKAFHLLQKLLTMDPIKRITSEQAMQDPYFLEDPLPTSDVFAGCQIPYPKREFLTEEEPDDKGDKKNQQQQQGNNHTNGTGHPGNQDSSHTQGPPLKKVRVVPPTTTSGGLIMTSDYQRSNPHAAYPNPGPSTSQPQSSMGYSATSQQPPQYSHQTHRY
Chain of CDK8/cyclin C (P24863 whole entry partner): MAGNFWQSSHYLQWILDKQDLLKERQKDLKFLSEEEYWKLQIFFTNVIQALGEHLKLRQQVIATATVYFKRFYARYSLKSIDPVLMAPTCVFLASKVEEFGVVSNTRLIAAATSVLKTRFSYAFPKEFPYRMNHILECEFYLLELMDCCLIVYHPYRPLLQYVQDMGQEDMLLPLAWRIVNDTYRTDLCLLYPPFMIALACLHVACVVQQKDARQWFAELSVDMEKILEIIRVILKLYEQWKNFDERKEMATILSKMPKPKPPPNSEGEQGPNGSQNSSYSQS

[5] = molecular target: NEK4 (Homo sapiens, UniProt P51957)
Chain of NEK4 (P51957 whole entry): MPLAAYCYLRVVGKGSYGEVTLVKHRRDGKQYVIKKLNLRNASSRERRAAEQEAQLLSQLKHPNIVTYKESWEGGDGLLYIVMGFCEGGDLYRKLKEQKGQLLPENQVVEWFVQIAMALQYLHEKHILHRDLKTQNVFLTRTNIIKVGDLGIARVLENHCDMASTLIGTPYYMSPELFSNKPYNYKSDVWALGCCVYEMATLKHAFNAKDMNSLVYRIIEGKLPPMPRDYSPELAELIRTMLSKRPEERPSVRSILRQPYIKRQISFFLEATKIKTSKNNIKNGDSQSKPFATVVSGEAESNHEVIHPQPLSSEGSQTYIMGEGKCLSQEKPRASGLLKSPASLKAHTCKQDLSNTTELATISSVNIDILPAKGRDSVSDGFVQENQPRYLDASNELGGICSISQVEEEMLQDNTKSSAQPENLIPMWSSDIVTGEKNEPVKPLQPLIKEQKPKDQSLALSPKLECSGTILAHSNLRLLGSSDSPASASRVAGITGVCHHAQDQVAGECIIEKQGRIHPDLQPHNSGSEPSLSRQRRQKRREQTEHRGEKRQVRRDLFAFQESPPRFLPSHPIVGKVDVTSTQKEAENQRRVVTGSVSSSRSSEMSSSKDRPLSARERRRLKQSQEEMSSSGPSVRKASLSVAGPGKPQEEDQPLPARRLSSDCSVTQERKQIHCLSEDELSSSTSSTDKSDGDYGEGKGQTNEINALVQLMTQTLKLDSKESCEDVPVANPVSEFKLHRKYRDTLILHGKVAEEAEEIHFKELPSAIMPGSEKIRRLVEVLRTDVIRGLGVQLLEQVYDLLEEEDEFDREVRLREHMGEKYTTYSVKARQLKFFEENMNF

[6] = molecular target: CDK18/cyclin Y (PCTK3) (Homo sapiens, UniProt Q07002)
Chain of CDK18/cyclin Y (PCTK3) (Q07002 whole entry): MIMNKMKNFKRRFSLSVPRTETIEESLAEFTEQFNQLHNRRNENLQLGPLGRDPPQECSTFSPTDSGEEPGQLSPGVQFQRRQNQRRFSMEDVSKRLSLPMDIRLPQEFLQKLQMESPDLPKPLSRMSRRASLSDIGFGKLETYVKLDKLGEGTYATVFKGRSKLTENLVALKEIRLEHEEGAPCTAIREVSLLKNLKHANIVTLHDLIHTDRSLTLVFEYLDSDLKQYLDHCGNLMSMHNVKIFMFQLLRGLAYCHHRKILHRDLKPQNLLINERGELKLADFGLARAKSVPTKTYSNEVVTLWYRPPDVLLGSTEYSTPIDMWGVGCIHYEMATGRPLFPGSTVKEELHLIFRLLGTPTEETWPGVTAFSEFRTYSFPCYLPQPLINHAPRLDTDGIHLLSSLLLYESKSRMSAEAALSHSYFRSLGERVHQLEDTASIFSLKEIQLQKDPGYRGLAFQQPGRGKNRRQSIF
Chain of CDK18/cyclin Y (PCTK3) (Q8ND76 whole entry partner): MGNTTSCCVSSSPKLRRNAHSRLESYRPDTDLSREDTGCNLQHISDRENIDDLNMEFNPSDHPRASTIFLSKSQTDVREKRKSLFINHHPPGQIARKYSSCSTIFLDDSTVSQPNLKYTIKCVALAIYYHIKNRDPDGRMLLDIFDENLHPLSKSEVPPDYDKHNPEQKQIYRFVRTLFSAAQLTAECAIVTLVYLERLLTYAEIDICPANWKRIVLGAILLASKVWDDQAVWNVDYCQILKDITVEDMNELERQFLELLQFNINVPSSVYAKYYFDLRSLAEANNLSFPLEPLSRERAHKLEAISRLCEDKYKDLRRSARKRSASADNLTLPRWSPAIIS

[7] = molecular target: T3, c-MER (Homo sapiens, UniProt Q12866)
T3 sequence (Q12866 21-999): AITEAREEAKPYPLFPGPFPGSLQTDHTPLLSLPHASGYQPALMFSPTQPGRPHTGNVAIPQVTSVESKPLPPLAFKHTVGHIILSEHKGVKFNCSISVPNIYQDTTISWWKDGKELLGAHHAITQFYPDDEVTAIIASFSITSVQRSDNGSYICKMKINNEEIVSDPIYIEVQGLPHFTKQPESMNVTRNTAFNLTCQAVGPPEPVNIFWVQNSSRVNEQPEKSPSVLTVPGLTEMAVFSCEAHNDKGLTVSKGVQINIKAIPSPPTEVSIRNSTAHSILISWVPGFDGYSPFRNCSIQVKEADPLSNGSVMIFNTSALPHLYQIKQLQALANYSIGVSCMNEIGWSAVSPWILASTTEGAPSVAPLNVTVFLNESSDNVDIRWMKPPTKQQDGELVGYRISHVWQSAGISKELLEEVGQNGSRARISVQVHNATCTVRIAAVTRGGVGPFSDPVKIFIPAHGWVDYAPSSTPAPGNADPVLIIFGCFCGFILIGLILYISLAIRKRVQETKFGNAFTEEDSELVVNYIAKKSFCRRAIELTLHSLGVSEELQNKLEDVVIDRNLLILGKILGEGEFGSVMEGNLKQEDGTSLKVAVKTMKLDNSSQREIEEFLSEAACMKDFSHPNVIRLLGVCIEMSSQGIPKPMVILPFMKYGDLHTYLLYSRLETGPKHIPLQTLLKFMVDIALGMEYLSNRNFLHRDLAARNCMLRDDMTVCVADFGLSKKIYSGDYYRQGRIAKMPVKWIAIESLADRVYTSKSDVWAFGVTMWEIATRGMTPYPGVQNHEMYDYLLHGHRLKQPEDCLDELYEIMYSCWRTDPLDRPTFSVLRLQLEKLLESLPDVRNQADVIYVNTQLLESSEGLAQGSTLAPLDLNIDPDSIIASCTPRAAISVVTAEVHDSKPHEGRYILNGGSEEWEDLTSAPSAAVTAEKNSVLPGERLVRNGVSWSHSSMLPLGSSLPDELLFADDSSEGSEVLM

[8] = molecular target: c-Kit (Homo sapiens, UniProt P10721)
Chain of c-Kit (P10721 26-976): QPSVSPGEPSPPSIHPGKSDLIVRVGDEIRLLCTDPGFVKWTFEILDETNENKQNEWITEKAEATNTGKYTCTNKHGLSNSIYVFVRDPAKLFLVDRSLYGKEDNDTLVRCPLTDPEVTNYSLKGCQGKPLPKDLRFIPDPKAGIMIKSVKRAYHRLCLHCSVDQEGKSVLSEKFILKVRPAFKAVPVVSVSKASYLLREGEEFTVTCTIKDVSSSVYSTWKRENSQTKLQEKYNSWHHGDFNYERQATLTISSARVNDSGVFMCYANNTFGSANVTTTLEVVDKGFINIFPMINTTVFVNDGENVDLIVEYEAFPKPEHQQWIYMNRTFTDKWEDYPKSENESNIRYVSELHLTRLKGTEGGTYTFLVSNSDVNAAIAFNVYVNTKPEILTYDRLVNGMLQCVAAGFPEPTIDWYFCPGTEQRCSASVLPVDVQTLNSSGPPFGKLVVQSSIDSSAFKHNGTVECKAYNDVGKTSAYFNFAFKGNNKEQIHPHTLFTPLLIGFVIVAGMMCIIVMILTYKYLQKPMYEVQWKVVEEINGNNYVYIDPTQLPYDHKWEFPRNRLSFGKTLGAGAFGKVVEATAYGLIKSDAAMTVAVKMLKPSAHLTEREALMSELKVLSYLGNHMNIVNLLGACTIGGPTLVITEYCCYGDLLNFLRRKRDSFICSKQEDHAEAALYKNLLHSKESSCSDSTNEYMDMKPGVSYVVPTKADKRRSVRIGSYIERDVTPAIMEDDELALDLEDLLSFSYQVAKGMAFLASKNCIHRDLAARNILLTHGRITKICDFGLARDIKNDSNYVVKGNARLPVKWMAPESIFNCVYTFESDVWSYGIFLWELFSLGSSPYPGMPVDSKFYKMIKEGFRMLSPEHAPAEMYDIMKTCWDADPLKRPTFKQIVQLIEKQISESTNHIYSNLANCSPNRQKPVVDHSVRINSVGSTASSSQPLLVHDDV

[9] = molecular target: T4, EPHA1 (Homo sapiens, UniProt P21709)
T4 sequence (P21709 26-976): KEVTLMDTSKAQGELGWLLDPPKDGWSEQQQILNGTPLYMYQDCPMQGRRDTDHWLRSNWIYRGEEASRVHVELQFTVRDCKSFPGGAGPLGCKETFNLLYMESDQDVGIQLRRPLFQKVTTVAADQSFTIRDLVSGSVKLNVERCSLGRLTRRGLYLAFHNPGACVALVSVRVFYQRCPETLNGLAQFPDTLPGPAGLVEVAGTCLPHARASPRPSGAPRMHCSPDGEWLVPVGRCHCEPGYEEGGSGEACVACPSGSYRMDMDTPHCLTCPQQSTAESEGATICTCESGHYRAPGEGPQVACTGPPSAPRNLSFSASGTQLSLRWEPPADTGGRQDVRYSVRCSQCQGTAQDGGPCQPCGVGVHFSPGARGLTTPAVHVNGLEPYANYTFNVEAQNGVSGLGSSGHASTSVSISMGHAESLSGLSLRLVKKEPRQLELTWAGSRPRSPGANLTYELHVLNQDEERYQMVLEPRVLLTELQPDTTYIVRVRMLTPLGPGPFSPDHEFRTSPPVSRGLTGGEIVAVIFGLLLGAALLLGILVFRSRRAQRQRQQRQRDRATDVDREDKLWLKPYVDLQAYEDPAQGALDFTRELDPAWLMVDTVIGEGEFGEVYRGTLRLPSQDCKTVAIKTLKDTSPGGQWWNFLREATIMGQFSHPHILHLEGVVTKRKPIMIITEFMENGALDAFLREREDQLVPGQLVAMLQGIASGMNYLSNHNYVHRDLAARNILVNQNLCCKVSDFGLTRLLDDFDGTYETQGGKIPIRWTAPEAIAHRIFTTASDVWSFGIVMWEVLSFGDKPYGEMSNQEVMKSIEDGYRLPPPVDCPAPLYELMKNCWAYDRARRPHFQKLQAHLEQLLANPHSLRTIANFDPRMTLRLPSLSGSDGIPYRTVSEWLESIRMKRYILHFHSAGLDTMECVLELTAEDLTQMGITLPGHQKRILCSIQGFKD

Chain of MAST3 (O60307 whole entry): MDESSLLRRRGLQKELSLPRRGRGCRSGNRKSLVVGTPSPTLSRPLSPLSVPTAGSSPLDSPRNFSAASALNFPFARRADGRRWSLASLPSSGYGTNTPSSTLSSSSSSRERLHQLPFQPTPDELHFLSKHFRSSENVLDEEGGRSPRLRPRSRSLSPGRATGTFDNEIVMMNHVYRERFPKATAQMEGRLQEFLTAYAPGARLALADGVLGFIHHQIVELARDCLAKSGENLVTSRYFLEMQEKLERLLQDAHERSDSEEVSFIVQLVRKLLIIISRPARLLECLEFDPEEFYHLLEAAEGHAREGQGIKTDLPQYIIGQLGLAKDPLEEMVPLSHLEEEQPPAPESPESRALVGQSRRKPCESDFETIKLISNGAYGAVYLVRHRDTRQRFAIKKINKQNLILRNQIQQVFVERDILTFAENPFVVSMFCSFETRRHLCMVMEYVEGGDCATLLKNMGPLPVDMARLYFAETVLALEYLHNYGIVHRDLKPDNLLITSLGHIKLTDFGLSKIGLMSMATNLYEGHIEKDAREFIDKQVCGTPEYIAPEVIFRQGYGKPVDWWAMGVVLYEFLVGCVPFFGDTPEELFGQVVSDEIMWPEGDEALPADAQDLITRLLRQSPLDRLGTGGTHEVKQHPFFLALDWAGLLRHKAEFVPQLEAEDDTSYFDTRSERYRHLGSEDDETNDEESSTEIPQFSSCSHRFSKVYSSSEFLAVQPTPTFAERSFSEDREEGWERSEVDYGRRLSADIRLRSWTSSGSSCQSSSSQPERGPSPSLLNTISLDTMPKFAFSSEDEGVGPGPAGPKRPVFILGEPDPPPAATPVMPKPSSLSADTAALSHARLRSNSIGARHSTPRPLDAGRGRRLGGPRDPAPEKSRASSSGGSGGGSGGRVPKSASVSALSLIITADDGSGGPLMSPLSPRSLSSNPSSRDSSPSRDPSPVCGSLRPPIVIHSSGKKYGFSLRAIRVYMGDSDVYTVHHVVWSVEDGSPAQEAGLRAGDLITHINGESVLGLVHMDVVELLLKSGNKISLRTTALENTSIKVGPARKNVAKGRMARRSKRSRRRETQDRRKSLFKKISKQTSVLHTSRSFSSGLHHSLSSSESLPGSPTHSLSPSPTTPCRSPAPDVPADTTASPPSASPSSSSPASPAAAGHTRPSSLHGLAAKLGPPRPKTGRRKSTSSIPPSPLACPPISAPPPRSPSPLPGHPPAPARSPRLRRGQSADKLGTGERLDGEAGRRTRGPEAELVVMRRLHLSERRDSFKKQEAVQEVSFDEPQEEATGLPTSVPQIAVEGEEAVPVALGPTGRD

COc1cc(-c2cncc(-c3ccc(N4CCN(C)CC4)cc3)c2C)cc(F)c1C(N)=O [Compound 26a, 2-Fluoro-6-methoxy-4-(4-methyl-5-(4-(4-methylpiperazin-1-yl)phenyl)pyridin-3-yl)benzamide]
% enzyme activity [1]: 93.52%
% enzyme activity [2]: 89.81%
% enzyme activity [3]: 98.26%
% enzyme activity [4]: 83.64%
% enzyme activity [5]: 97.67%
% enzyme activity [6]: 100.43%
% enzyme activity [7]: 99.93%
% enzyme activity [8]: 74.03%
% enzyme activity [9]: 96.36%

COc1cc(-c2cncc(-c3ccc(N4C[C@@H](C)N(C)[C@@H](C)C4)cc3)c2C)cc(F)c1C(N)=O [Compound 26c, 2-Fluoro-6-methoxy-4-(4-methyl-5-(4-((3R,5S)-3,4,5-trimethylpiperazin-1-yl)phenyl)pyridin-3-yl)benzamide]
% enzyme activity [1]: 95.17%
% enzyme activity [2]: 102.56%
% enzyme activity [3]: 97.52%
% enzyme activity [4]: 92.05%
% enzyme activity [5]: 97.25%
% enzyme activity [6]: 97.60%
% enzyme activity [7]: 96.34%
% enzyme activity [8]: 74.89%
% enzyme activity [9]: 89.93%

From PMC8213057, “Targeting ALK2: An Open Science Approach to Developing Therapeutics for the Treatment of Diffuse Intrinsic Pontine Glioma” (Journal of Medicinal Chemistry, 2020)
